The target in series [1] is T1, rat mGluR5 (Rattus norvegicus, UniProt P31424).
T1 construct: expressed in transfected cells
In words: mGluR5 assay on HEK-expressing rat mGluR5 (fluorescent cell based Ca2+ mobilization). Conditions: HEK-293 cells stably expressing rat mGluR5, no co-addition of glutamate; mean of at least three independent experiments in duplicate; read-out: Ca2+ Flux (mean EC50). As to the method: Positive functional expression of HEK-293 cells stably expressing rat mGluR5 receptor was determined by measuring intracellular Ca^2+ changes using a Fluorometric Imaging Plate Reader (FLIPR, Molecular Devices, Sunnyvale, Calif.) in response to glutamate or selective known mGluR5 agonists and antagonists. Rat mGluR5RT-PCR products in HEK-293 cells were sequenced and found 100% identical to rat mGluR5Genbank reference sequence (NM_017012). HEK-293 cells expressing rmGluR5 were maintained in media containing DMEM, dialyzed Fetal Bovine Serum (10%), Glutamax™ (2 mM), Penicillin (100 units/ml), Streptomycin (100 μg/ml), Geneticin (100 μg/ml) and Hygromycin-B (40 μg/ml) at 37° C./5% CO2.
After one day of incubation, cells were washed with assay buffer containing: 142 mM NaCl, 6 mM KCl, 1 mM […], 1 mM CaCl2, 20 mM HEPES, 1 g/L glucose, 0.125 mM sulfinpyrazone, pH 7.4. After 60 min of loading with 4 uM Fluo-4 (TefLabs, Austin, Tex.), the cells were washed three times with 50 μl of PBS Buffer and resuspended in 45 μl of assay Buffer. The plates were then transferred to a Fluorometric Imaging Plate Reader (FLIPR, Molecular Devices, Sunnyvale, Calif.) for the assessment of intracellular calcium flux. After monitoring the baseline fluorescence for 10 seconds, increasing concentrations of representative compound (from 0.01 to 60 μM) of the present invention diluted in Assay Buffer (15 μl of 4× dilutions) was added to the cell. The final DMSO concentration in the assay was 0.3%. In each experiment, fluorescence was then monitored as a function of time for 3 minutes and the data analyzed using Microsoft Excel and GraphPad Prism. Each data point was also measured two times.
Under these experimental conditions, this HEK-rat mGluR5 cell line is able to directly detect positive allosteric modulators without the need of co-addition of glutamate or mGluR5 agonist.
The concentration-response curves of representative compounds of the present invention were generated using the Prism GraphPad software (Graph Pad Inc, San Diego, USA). The curves were fitted to a four-parameter logistic equation:
(Y=Bottom+(Top-Bottom)/(1+10̂((Log EC50−X)*Hill Slope)
allowing determination of EC50 values.
The Table 1 below represents the mean EC50 obtained from at least three independent experiments of selected molecules performed in duplicate.
(In general: A change in cytosolic calcium serves as a functional read-out for many receptors and channels.)

In series [2] the target is T2, mGluR5 (Rattus norvegicus, UniProt P31424).
T2 construct: positive allosteric modulators of mGluR5 receptors in native preparations; endogenous in cells; host or cells: primary cortical astrocytes from Sprague-Dawley rat embryos (E16-19)
In words: mGluR5 binding assay ([3H]-MPEP, rat brain membranes). Particulars: competition with 3 nM [3H]-MPEP, rat cortical membranes, 1 h at 4° C. From the text:
Activity of compounds of the invention was examined following a radioligand binding technique using whole rat brain and tritiated 2-methyl-6-(phenylethynyl)-pyridine ([^3H]-MPEP) as a ligand following similar methods than those described in Gasparini et al. (2002) Bioorg. Med. Chem. Lett. 12:407-409 and in Anderson et al. (2002) J. Pharmacol. Exp. Ther. 303 (3) 1044-1051.
Cortices were dissected out from brains of 200-300 g Sprague-Dawley rats (Charles River Laboratories, L'Arbresle, France). Tissues were homogenized in 10 volumes (vol/wt) of ice-cold 50 mM Hepes-NaOH (pH 7.4) using a Polytron disrupter (Kinematica AG, Luzern, Switzerland) and centrifuged for 30 min at 40,000 g. (4° C.). […] Protein concentration was determined by the Bradford method (Bio-Rad protein assay, Reinach, Switzerland) with bovine serum albumin as standard.
Membranes were thawed and resuspended in binding buffer containing 20 mM HEPES-NaOH, 3 mM MgCl2, 3 mM CaCl2, 100 mM NaCl, pH 7.4. […] Radioactivity was determined by liquid scintillation spectrometry using a 96-well plate reader (TopCount, Perkin-Elmer, Downers Grove, USA).
The inhibition curves were generated using the Prism GraphPad program (Graph Pad Software Inc, San Diego, USA). […] The mean of IC50 obtained from at least three independent experiments of selected molecules performed in duplicate were calculated.

Bounds are passed on as bounds.

This is an account of results in patent US20100081690A1, “OXAZOLE DERIVATIVES AS POSITIVE ALLOSTERIC MODULATORS OF METABOTROPIC GLUTAMATE RECEPTORS” (ADDEX PHARMA SA, priority 2006, published 2010).

T1 sequence (P31424 21-1171 isoform P31424-2 limits assumed): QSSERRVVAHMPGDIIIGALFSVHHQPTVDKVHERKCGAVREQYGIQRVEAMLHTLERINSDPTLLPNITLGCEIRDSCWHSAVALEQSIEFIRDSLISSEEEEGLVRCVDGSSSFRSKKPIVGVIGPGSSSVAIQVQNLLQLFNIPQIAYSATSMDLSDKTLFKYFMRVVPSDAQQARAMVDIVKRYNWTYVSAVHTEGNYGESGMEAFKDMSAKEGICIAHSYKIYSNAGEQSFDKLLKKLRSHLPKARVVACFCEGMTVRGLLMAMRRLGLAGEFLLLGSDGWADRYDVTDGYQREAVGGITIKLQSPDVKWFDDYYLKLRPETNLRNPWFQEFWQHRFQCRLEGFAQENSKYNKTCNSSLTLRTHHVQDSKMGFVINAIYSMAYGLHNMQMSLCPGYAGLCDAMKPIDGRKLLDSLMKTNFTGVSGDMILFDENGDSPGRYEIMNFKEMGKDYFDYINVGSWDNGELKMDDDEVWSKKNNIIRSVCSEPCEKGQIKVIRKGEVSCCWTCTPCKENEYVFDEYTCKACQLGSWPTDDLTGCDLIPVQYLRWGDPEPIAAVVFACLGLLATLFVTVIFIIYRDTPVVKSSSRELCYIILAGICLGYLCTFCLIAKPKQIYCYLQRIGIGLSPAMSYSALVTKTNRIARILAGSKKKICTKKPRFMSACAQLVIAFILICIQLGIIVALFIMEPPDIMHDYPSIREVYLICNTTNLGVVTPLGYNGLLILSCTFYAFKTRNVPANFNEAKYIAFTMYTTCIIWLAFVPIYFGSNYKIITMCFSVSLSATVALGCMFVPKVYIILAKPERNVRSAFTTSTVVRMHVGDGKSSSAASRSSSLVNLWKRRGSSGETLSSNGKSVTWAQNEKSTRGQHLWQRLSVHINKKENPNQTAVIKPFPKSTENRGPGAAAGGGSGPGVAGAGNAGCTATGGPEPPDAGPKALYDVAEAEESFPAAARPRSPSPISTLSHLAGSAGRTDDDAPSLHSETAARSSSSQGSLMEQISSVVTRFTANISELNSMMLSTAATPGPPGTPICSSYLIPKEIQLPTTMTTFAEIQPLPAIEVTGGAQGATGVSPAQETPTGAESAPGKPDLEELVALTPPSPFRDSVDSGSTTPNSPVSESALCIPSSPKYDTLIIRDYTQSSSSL
T2 sequence (P31424 21-1203): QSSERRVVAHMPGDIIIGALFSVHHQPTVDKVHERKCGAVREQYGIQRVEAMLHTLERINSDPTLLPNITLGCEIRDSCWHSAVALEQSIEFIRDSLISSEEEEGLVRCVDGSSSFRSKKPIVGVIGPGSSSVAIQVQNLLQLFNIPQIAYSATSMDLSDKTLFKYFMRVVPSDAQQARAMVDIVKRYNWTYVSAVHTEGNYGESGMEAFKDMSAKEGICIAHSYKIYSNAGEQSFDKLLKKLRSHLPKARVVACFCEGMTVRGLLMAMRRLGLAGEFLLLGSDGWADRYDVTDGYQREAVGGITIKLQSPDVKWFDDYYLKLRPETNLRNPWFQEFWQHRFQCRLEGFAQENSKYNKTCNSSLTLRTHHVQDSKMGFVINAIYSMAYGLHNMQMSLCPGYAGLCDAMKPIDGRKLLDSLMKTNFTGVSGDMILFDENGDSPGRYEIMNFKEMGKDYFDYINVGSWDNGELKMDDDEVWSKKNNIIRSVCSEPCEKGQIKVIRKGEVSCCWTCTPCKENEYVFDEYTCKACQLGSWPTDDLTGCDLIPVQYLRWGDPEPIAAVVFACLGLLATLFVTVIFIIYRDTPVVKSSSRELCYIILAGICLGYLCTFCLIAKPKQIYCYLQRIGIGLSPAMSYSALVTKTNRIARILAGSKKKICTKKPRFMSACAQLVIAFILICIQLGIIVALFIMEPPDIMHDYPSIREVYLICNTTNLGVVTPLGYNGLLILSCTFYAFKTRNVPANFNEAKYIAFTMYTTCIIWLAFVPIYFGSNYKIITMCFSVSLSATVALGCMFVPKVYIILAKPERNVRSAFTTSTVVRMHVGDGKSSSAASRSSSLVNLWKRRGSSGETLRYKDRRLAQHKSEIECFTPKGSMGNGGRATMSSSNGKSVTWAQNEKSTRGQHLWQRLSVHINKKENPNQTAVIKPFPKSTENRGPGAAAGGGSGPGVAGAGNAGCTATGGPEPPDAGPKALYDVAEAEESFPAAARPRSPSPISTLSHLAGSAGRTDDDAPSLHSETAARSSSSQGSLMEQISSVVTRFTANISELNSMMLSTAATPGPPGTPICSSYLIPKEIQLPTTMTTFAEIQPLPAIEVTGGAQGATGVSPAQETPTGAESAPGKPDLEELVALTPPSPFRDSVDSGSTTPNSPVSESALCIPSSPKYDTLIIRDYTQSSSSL

For the compound `O=C(c1ccc(F)cc1)N1CCC[C@H](c2nc(-c3cc(F)c[nH]3)co2)C1` [Example 1, (4-Fluoro-phenyl)-{(S)-3-[4-(4-fluoro-1H-pyrrol-2-yl)-oxazol-2-yl]-piperidin-1-yl}-methanone], the melting point (usually the temperature, or range, at which the solid turns liquid) was 136 °C. Further, the EC50 (in general, the concentration giving half of the maximal effect) in series [1] is below 1 µM. Moreover, the IC50 (usually the concentration needed to halve the response being measured) in series [2] is below 10 µM.
